Counter-ions that a name gives are not always drawn.
Row | SMILES | melting point [°C]
1 | O=C(CCc1ccccc1)N1CCCn2c1nc(-c1ccncc1)cc2=O (as salt: salt) [Compound No 25 of Table 1, 9-[3-phenylpropanoyl]-2-pyridin-4-yl-6,7,8,9-tetrahydro-4H-pyrimido[1,2-a]pyrimidin-4-one] | 158 to 160
2 | CC(C(=O)c1ccccc1)N1CCCn2c1nc(-c1ccncc1)cc2=O (racemic) (as salt: hydrochloride) [Compound No 73 of Table 1, 9-[1-methyl-2-oxo-2-phenyl-ethyl]-2-pyridin-4-yl-6,7,8,9-tetrahydro-4H-pyrimido[1,2-a]pyrimidin-4-one] | 194 to 196
3 | CC(C(O)c1ccccc1)N1CCCn2c1nc(-c1ccncc1)cc2=O (racemic) [Compound No 74 of Table 1, 9-[1-methyl-2-hydroxy-2-phenyl-ethyl]-2-pyridin-4-yl-6,7,8,9-tetrahydro-4H-pyrimido[1,2-a]pyrimidin-4-one] | 232 to 234
4 | O=C(CCc1ccccc1)N1CCCn2c1nc(-c1ccncc1)cc2=O [Compound No 25 of Table 1, 9-[3-phenylpropanoyl]-2-pyridin-4-yl-6,7,8,9-tetrahydro-4H-pyrimido[1,2-a]pyrimidin-4-one] | 230 to 232

Source: patent US7566720B2, “2-pyridinyl-6,7,8,9-tetrahydropyrimido[1,2-a] pyrimidin-4-one and 7-pyridinyl-2,3-dihydroimidazo[1,2-a] pyrimidin-5(1H)one derivatives” (Sanofi-Aventis, priority 2000, dated 2009)
